Laboratory results as given in ChEMBL document CHEMBL5209584, “Membrane potential based assay for SLC15A2 using HEK-293 SLC15A2 OE cells” (2022).
“And” between values parts separate entries of the source, which are not always exact repeats. Equal entries are not always repeated. Square brackets hold non-standard residues; d marks the D form. Peptide text beside a SMILES is read from it. Sar = CNCC(=O)O

Biological target: T1, Solute carrier family 15 member 2 (Homo sapiens, UniProt Q16348)
T1 sequence (Q16348 whole entry): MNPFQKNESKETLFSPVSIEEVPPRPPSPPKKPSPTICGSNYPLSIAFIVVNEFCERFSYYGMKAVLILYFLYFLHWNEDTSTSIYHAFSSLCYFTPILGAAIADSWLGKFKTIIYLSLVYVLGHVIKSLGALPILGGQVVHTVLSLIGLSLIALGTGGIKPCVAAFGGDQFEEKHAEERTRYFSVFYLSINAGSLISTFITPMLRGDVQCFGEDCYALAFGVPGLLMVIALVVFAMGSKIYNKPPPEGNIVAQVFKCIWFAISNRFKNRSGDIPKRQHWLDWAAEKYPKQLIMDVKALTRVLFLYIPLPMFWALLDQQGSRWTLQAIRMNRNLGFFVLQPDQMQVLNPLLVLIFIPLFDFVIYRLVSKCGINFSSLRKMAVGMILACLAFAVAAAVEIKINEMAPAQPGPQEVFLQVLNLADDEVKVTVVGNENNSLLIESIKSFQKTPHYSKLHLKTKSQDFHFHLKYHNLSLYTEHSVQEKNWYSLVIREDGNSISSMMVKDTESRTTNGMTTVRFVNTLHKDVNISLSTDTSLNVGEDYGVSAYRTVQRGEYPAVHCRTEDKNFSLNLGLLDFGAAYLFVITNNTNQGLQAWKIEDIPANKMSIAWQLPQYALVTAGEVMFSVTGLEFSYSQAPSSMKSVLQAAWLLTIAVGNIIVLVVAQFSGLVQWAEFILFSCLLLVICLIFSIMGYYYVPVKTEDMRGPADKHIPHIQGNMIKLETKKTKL
Experiment: Substrate uptake by the Peptide Transporter 2 (PEPT2, SLC15A2) as assessed by the fluorescent FLIPR membrane potential dye in HEK-293 JumpIN-SLC15A2 cells (PubChem AID: 1794819)
Format: functional, cell-based, HEK293

Structure (SMILES) | EC50
NCCC(=O)N[C@@H](Cc1cnc[nH]1)C(=O)O [CARNOSINE] | 28 µM
CN(CC(=O)O)C(=O)CN [GLYCYLSARCOSINE] (H-Gly-[Sar]-OH) | 123 µM and 39 µM
